Data from patent US10568893B2, “Methods for treating inflammation, autoimmune disorders and pain” (BRIGHAM YOUNG UNIVERSITY, priority 2013, dated 2020).

Key:
[1] = tested on: IL1A (Interleukin-1 alpha); experiment: Inflammation gene regulation, mRNA q-PCR panel; format: cell-based; settings: mRNA by q-PCR, 8 hours treatment, primary human MSC (dendritic cells also described); CSA-13 at 5.0 μM
Text: (§1) Cells were purchased from Lonza.com and used fresh for each test using recommended media and culture conditions. After treatment, mRNA was isolated using Qiagen RNeasy Mini Kit®, and quantified using a NanoDrop 2000® by UV at 260 nm and 260/280 ratio for purity. cDNA was made using a First Strand Kit® from SABiosciences and processed for real time PCR using a kit from the same company for selected analysis of wound healing pathways. Results from q-PCR were uploaded to the SABiosciences site and to Ingenuity.com web site for analysis and pathway mapping. On day 1, primary human MSC cells were plated at 200,000 cells/well using 6-well plates with 3 ml of recommended media—hMSC Basal Medium+BulletKit (50 ml Growth Supplement, 10 ml L-Glutamine and 0.5 ml Gentamicin Sulfate Amphotercin-B) for 24 hours. Only early passages of cells were used, and never from frozen stock. On day 2, cells were treated with compounds dissolved in DMSO diluted 1:1000 or more to avoid effects of the solvent. […] Treatment lasted 8 hours, and was followed by RNA isolation using QIAGEN RNeasy Mini Kit® (74104). RNA was measured at 260/280 nm using a NanoDrop 2000® and normalized to 2.4 ng per well, cDNA preparation was done using QIAGEN First Strand kit 330401. q-PCR was run as absolute quantification and threshold set at 0.1 units. Dendritic cells were plated at 500,000 cells/well using 24-well plate with 500 μl of Lonza LGM-3 Complete Growth Medium with and without compound. Treatment lasted 8 hours, and was followed by RNA isolation using QIAGEN RNeasy Mini Kit® (74104). RNA was measured at 260/280 nm using NanoDrop2000® and normalized to 2.4 ng per well, cDNA preparation was done using QIAGEN First Strand kit 330401. PCR was run as absolute quantification and threshold set at 0.1 units.

[2] = tested on: IL1B (Interleukin-1 beta); experiment: Inflammation gene regulation, mRNA q-PCR panel; format: cell-based; settings: mRNA by q-PCR, 8 hours treatment, primary human MSC (dendritic cells also described); CSA-13 at 5.0 μM
Text: as §1

[3] = tested on: IRAK2 (Interleukin-1 receptor-associated kinase 2); experiment: Inflammation gene regulation, mRNA q-PCR panel; format: cell-based; settings: mRNA by q-PCR, 8 hours treatment, primary human MSC (dendritic cells also described); CSA-13 at 5.0 μM
Text: as §1

[4] = tested on: NFKB1 (Nuclear factor of kappa light polypeptide gene enhancer in B-cells 1); experiment: Inflammation gene regulation, mRNA q-PCR panel; format: cell-based; settings: mRNA by q-PCR, 8 hours treatment, primary human MSC (dendritic cells also described); CSA-13 at 5.0 μM
Text: as §1

[5] = tested on: NFKB2 (Nuclear factor of kappa light polypeptide gene enhancer in B-cells 2); experiment: Inflammation gene regulation, mRNA q-PCR panel; format: cell-based; settings: mRNA by q-PCR, 8 hours treatment, primary human MSC (dendritic cells also described); CSA-13 at 5.0 μM
Text: as §1

[6] = tested on: NFKBIA (Nuclear factor of kappa light polypeptide gene enhancer in B-cells inhibitor, alpha); experiment: Inflammation gene regulation, mRNA q-PCR panel; format: cell-based; settings: mRNA by q-PCR, 8 hours treatment, primary human MSC (dendritic cells also described); CSA-13 at 5.0 μM
Text: as §1

[7] = tested on: TLR2 (Toll-like receptor 2); experiment: Inflammation gene regulation, mRNA q-PCR panel; format: cell-based; settings: mRNA by q-PCR, 8 hours treatment, primary human MSC (dendritic cells also described); CSA-13 at 5.0 μM
Text: as §1

[8] = tested on: TLR4 (Toll-like receptor 4); experiment: Inflammation gene regulation, mRNA q-PCR panel; format: cell-based; settings: mRNA by q-PCR, 8 hours treatment, primary human MSC (dendritic cells also described); CSA-13 at 5.0 μM
Text: as §1

[9] = tested on: TLR6 (Toll-like receptor 6); experiment: Inflammation gene regulation, mRNA q-PCR panel; format: cell-based; settings: mRNA by q-PCR, 8 hours treatment, primary human MSC (dendritic cells also described); CSA-13 at 5.0 μM
Text: as §1

[10] = tested on: TLR8 (Toll-like receptor 8); experiment: Inflammation gene regulation, mRNA q-PCR panel; format: cell-based; settings: mRNA by q-PCR, 8 hours treatment, primary human MSC (dendritic cells also described); CSA-13 at 5.0 μM
Text: as §1

[11] = tested on: TLR9 (Toll-like receptor 9); experiment: Inflammation gene regulation, mRNA q-PCR panel; format: cell-based; settings: mRNA by q-PCR, 8 hours treatment, primary human MSC (dendritic cells also described); CSA-13 at 5.0 μM
Text: as §1

[12] = tested on: TNF (Tumor necrosis factor); experiment: Inflammation gene regulation, mRNA q-PCR panel; format: cell-based; settings: mRNA by q-PCR, 8 hours treatment, primary human MSC (dendritic cells also described); CSA-13 at 5.0 μM
Text: as §1

[13] = tested on: TNFRSF1A (Tmor necrosis factor receptor superfamily member 1A); experiment: Inflammation gene regulation, mRNA q-PCR panel; format: cell-based; settings: mRNA by q-PCR, 8 hours treatment, primary human MSC (dendritic cells also described); CSA-13 at 5.0 μM
Text: as §1

alveolar bone loss = settings: topical application; cited from earlier work

Compound | Fold Regulation IL1A [1] | Fold Regulation IL1B [2] | Fold Regulation IRAK2 [3] | Fold Regulation NFKB1 [4] | Fold Regulation NFKB2 [5] | Fold Regulation NFKBIA [6] | Fold Regulation TLR2 [7] | Fold Regulation TLR4 [8] | Fold Regulation TLR6 [9] | Fold Regulation TLR8 [10] | Fold Regulation TLR9 [11] | Fold Regulation TNF [12] | Fold Regulation TNFRSF1A [13] | Alveolar bone loss (alveolar bone loss)
CCCCCN(CCCCC)CCC[C@@H](C)[C@H]1CC[C@H]2[C@@H]3[C@H](OCCCN)C[C@@H]4C[C@H](OCCCN)CC[C@]4(C)[C@H]3C[C@H](OCCCN)[C@]12C [CSA-90] | −6.96 | −3.6734 | −52.0069 | −4.718 | −2.5474 | −26.0352 | −13.6933 | −3.4278 | −2.0885 | −4.1972 | −1.8613 | −4.8514 | −7.3196 | 
CCCCCCCCOC(=O)CC[C@@H](C)[C@H]1CC[C@H]2[C@@H]3[C@H](OC(=O)CCN)C[C@@H]4C[C@H](OC(=O)CCN)CC[C@]4(C)[C@H]3C[C@H](OC(=O)CCN)[C@]12C [CSA-44] | −6.0325 | −28.5329 | −31.8021 | −3.2891 | −2.2766 | −52.206 | −15.7179 | −2.977 | −2.392 | −8.2256 | −1.8905 | −25.9588 | −2.2461 | 
CN/C(=N/CCSCc1nc[nH]c1C)NC#N [cimetidine] |  |  |  |  |  |  |  |  |  |  |  |  |  | reduce alveolar bone loss
